Data on 21 compounds can be found in patent US20120165331A1, “Di/tri-aza-spiro-C9-C11alkanes” (priority 2010, published 2012).

Assay [1] addresses T1, human orexin 2 receptor (Homo sapiens, UniProt O43614).
T1 construct: expressed in transfected cells
T1 sequence (O43614 1-444): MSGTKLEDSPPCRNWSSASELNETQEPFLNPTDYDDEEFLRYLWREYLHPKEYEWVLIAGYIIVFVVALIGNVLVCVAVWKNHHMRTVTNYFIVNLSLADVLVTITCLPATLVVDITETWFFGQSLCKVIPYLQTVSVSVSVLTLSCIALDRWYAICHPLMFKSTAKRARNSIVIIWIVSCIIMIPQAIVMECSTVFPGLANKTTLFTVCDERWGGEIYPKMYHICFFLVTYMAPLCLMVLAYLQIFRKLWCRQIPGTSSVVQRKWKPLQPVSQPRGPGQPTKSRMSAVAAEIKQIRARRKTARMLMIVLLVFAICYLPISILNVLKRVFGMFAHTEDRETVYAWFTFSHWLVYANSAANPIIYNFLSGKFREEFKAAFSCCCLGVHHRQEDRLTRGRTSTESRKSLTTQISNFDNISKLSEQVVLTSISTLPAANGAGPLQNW
Description: Calcium accumulation in cells (FLIPR), antagonism of orexin A, human orexin 2 receptor. The format is cell-based. The following applies: for Ki: calcium accumulation, antagonism of orexin A, Cheng-Prusoff corrected, read-out: FLIPR hOx2R Ki. How it is done: (§1) Calcium Accumulation in Cells (FLIPR):
(§2) Cells expressing human orexin 1 or human orexin 2 receptors, were seeded at 8,000 cells/well in 384 well black-walled clear bottom, poly-D-lysine coated plates. After 24 h, the medium was removed and cells were washed once with phosphate buffered saline and serum-deprived overnight in assay buffer (130 mM NaCl, 5.4 mM KCl, 1.8 mM CaCl2, 0.8 mM MgSO4, 0.9 mM NaH2PO4, 25 mM glucose, 20 mM HEPES, pH 7.4) containing bovine serum albumin (1% w/v).
(§3) On the day of the experiment, the cells seeded in black plates were treated with assay buffer containing the Ca^2+ sensitive fluorescent dye Fluo-4-AM (2 μM), and probenecid (0.1 mM). After 1 h plates were washed twice with, and resuspended in, assay buffer containing probenecid (0.1 mM) using a multi plate washer. The plates were placed into a FLIPR II (Fluorometric Imaging Plate Reader, Molecular Devices, Sunnyvale, Calif., USA) and baseline fluorescence (fluorescence light units, FLU) was measured (5 measurements, 2 S each; laser excitation 488 nm at 0.6-1 W, CCD camera exposure 0.4 s) before addition of buffer alone (basal) or containing test compounds (either compound of formula I alone, agonist alone or agonist in the presence of various concentrations of compounds of formula I). Fluorescence measurements were then continued every 1 S for 120 S followed by every 4 S for 240 S.
(§4) The measurements were typically made in two sequences:
(§5) Compounds of formula I were tested usually in a concentration range from 10^−9 M to 10^−5 M.
(§6) In the second round, performed one hour later (to allow for equilibration), Orexin A was tested either in the absence (calibration curves, Orexin A agonist controls) or in the presence of compounds of formula Ito determine antagonism.
(§7) Inhibition data is expressed in Table 1 as Kd [μM], converted by the Cheng and Prusoff correction (Kd=IC50/1+(L/EC50)), where IC50 is the 50% inhibition value determined in concentration response inhibition curves, EC50 is the half maximal activation concentration determined for orexin A in concentration response curves and L is the concentration of orexin A used in inhibition experiments performed in with a submaximal concentration of orexin A in the presence of up to 8 increasing concentrations of compound of formula I. Inhibition data is also expressed in Table 1 as % inhibition value measured at a concentration of 10 μM of selected compounds of formula I.

For assay [2], the target named is T2, human orexin 1 receptor (Homo sapiens, UniProt O43613).
T2 construct: expressed in transfected cells
T2 sequence (O43613 1-425): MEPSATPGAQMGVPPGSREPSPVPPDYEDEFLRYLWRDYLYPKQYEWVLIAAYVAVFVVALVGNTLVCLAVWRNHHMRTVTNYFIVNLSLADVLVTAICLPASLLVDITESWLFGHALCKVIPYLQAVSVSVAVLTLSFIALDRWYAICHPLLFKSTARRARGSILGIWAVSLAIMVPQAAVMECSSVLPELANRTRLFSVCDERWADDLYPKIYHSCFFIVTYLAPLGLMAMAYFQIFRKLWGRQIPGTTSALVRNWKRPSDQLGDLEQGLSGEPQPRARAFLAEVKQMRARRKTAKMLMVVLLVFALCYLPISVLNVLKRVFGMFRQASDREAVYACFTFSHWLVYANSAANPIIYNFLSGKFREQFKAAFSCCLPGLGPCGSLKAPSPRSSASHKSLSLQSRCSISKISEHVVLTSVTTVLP
In words: Calcium accumulation in cells (FLIPR), antagonism of orexin A, human orexin 1 receptor. The format is cell-based. The following applies: for Ki: calcium accumulation, antagonism of orexin A, Cheng-Prusoff corrected, read-out: FLIPR hOx1R Ki; for inhibition at 10 µM: measured at a concentration of 10 μM of compound, read-out: FLIPR hOx1R % inhibition. How it is done: as §1, §2, §3, §4, §5, §6, §7

Turning to `COc1ccnc(N2CCC3(CC2)OCCN(Cc2c[nH]c4ccccc24)C3=O)n1` [Example 2.5, 4-((1H-Indol-3-yl)methyl)-9-(4-methoxypyrimidin-2-yl)-1-oxa-4,9-diazaspiro[5.5]undecan-5-one], the Ki was found to be 61 nM in assay [1] and 1550 nM in assay [2].

With `Cc1cc(C)nc(N2CCC3(CC2)OCCN(Cc2ccccc2-c2ncco2)C3=O)n1` [Example 2.9, 9-(4,6-Dimethylpyrimidin-2-yl)-4-(2-(oxazol-2-yl)benzyl)-1-oxa-4,9-diazaspiro[5.5]undecan-5-one], the inhibition constant Ki in assay [1] was found to be 659 nM. Besides, the inhibition at 10 µM in assay [2] was determined as 42%.

For the compound `Cc1cc(C)nc(N2CCC3(CC2)OCCN(Cc2nn(C)nc2-c2ccccc2)C3=O)n1` [Example 2.12, 9-(4,6-Dimethylpyrimidin-2-yl)-4-((2-methyl-5-phenyl-2H-1,2,3-triazol-4-yl)methyl)-1-oxa-4,9-diazaspiro[5.5]undecan-5-one], the inhibition constant Ki in assay [1] worked out at 364 nM. Moreover, in assay [2], the inhibition at 10 µM turned out to be 16%.

In the case of `Cc1cc(C)nc(N2CCC3(CC2)OCCN(Cc2c(-c4ccccc4)nnn2C)C3=O)n1` [Example 2.15, 9-(4,6-Dimethylpyrimidin-2-yl)-4-((1-methyl-4-phenyl-1H-1,2,3-triazol-5-yl)methyl)-1-oxa-4,9-diazaspiro[5.5]undecan-5-one], the Ki in assay [1] is 2160 nM. In addition, in assay [2], the inhibition at 10 µM is 10%.

As for `Cc1cc(C)nc(N2CCC3(CC2)OCCN(Cc2nnn(C)c2-c2ccccc2)C3=O)n1` [Example 2.16, 9-(4,6-Dimethylpyrimidin-2-yl)-4-((1-methyl-5-phenyl-1H-1,2,3-triazol-4-yl)methyl)-1-oxa-4,9-diazaspiro[5.5]undecan-5-one], the inhibition at 10 µM was determined as 27% in assay [1] (measured at a concentration of 10 μM of compound, read-out: FLIPR hOx2R % inhibition) and 16% in assay [2].

In the case of `CCc1ccnc(N2CCC3(CC2)OCCN(Cc2c[nH]c4ccccc24)C3=O)n1` [Example 2.22, 4-((1H-indol-3-yl)methyl)-9-(4-ethylpyrimidin-2-yl)-1-oxa-4,9-diazaspiro[5.5]undecan-5-one], the Ki in assay [1] worked out at 251 nM; in assay [2], 2780 nM.

On to `Cc1cnc(N2CCC3(CC2)OCCN(Cc2c[nH]c4ccccc24)C3=O)nc1C` [Example 2.24, 4-((1H-indol-3-yl)methyl)-9-(4,5-dimethylpyrimidin-2-yl)-1-oxa-4,9-diazaspiro[5.5]undecan-5-one], for which the inhibition constant (Ki) stood at 182 nM in assay [1] and 1650 nM in assay [2].

As for `Cc1cc(C)nc(N2CCC3(CC2)OCCN(Cc2nocc2-c2ccccc2)C3=O)n1` [Example 2.25, 9-(4,6-dimethylpyrimidin-2-yl)-4-((4-phenylisoxazol-3-yl)methyl)-1-oxa-4,9-diazaspiro[5.5]undecan-5-one], the inhibition constant (Ki) amounted to 374 nM in assay [1] and 2680 nM in assay [2].

Turning to `Cc1cc(C)nc(N2CCC3(CC2)OCCN(Cc2conc2-c2ccccc2)C3=O)n1` [Example 2.26, 9-(4,6-dimethylpyrimidin-2-yl)-4-((3-phenylisoxazol-4-yl)methyl)-1-oxa-4,9-diazaspiro[5.5]undecan-5-one], the Ki in assay [1] was determined as 148 nM; in assay [2] it was 1180 nM.

Take `N#Cc1ccnc(N2CCC3(CCN(Cc4c[nH]c5ccccc45)C3=O)CC2)c1` [Example 3.3, 2-(2-((1H-Indol-3-yl)methyl)-1-oxo-2,8-diazaspiro[4.5]decan-8-yl)isonicotinonitrile]: the inhibition constant Ki in assay [1] was 496 nM. For the same compound, the inhibition at 10 µM in assay [2] turned out to be 27%.

Take `COc1cccc(N2CCC3(CCN(Cc4c[nH]c5ccccc45)C3=O)CC2)n1` [Example 3.4, 2-((1H-Indol-3-yl)methyl)-8-(6-methoxypyridin-2-yl)-2,8-diazaspiro[4.5]decan-1-one]: the inhibitory constant (Ki) was 287 nM in assay [1] and 3770 nM in assay [2].

In the case of `Cc1ccnc(N2CCC3(CCN(Cc4c[nH]c5ccccc45)C3=O)CC2)n1` [Example 3.5, 2-((1H-Indol-3-yl)methyl)-8-(4-methylpyrimidin-2-yl)-2,8-diazaspiro[4.5]decan-1-one], in assay [1], the inhibitory constant (Ki) amounted to 296 nM. Moreover, in assay [2], the inhibition at 10 µM was determined as 25%.

For `O=C1N(Cc2ccccc2-c2ccccc2)CCC12CCN(c1cnc3ccccc3n1)CC2` [Example 3.6, 2-(biphenyl-2-ylmethyl)-8-(quinoxalin-2-yl)-2,8-diazaspiro[4.5]decan-1-one], the results for the Ki in assay [1] and in assay [2] were 784 nM and 1630 nM, respectively.

With `Cn1c(N2CCC3(CCN(Cc4ccccc4-c4ccccc4)C3=O)CC2)nc2ccccc21` [Example 3.8, 2-(Biphenyl-2-ylmethyl)-8-(1-methyl-1H-benzo[d]imidazol-2-yl)-2,8-diazaspiro[4.5]decan-1-one], the Ki in assay [1] worked out at 644 nM; in assay [2], 506 nM.

With `O=C1N(Cc2ccccc2-c2ccccc2)CCC12CCN(c1nc3ccccc3[nH]1)CC2` [Example 3.9, 8-(1H-Benzo[d]imidazol-2-yl)-2-(biphenyl-2-ylmethyl)-2,8-diazaspiro[4.5]decan-1-one], the Ki in assay [1] stood at 731 nM; in assay [2], 343 nM.

As to `O=C1N(Cc2c[nH]c3ccccc23)CCC12CCN(c1nc3ccccc3[nH]1)CC2` [Example 3.12, 8-(1H-Benzoimidazol-2-yl)-2-(1H-indol-3-ylmethyl)-2,8-diaza-spiro[4.5]decan-1-one], the results for the Ki in assay [1] and in assay [2] were 376 nM and 4970 nM, respectively.

Take `O=C1N(Cc2c[nH]c3ccccc23)CCC12CCN(c1nc3ccccc3o1)CC2` [Example 3.13, 8-Benzooxazol-2-yl-2-(1H-indol-3-ylmethyl)-2,8-diaza-spiro[4.5]decan-1-one]: the Ki in assay [1] and in assay [2] was 342 nM throughout.

As to `COc1ccnc(N2CCC3(CCN(Cc4c[nH]c5ccccc45)C3=O)CC2)n1` [Example 3.14, 2-(1H-Indol-3-ylmethyl)-8-(4-methoxy-pyrimidin-2-yl)-2,8-diaza-spiro[4.5]decan-1-one], the Ki turned out to be 134 nM in assay [1] and 2770 nM in assay [2].

On to `COc1ccnc(N2CCC3(CCN(Cc4c[nH]c5ncccc45)C3=O)CC2)n1` [Example 3.15, 8-(4-Methoxy-pyrimidin-2-yl)-2-(1H-pyrrolo[2,3-b]pyridin-3-ylmethyl)-2,8-diaza-spiro[4.5]decan-1-one], for which, in assay [1], the Ki was found to be 637 nM. Also, the inhibition at 10 µM in assay [2] worked out at 26%.

For `COc1ccnc(N2CCC3(CCN(Cc4n[nH]c5ccccc45)C3=O)CC2)n1` [Example 3.16, 2-(1H-Indazol-3-ylmethyl)-8-(4-methoxy-pyrimidin-2-yl)-2,8-diaza-spiro[4.5]decan-1-one], the Ki in assay [1] was found to be 673 nM. Further, in assay [2], the inhibition at 10 µM stood at 39%.

On to `COc1ccnc(N2CCC3(CCN(Cc4ccccc4-c4nc(C)no4)C3=O)CC2)n1` [Example 3.17, 8-(4-Methoxy-pyrimidin-2-yl)-2-[2-(3-methyl-[1,2,4]oxadiazol-5-yl)-benzyl]-2,8-diaza-spiro[4.5]decan-1-one], for which, in assay [1], the Ki was found to be 298 nM. The inhibition at 10 µM in assay [2] came out at 37%.
